Source: patent publication US20250127162A1, “METHODS AND COMPOSITIONS FOR CONTROLLING PESTS IN RICE” (Globachem NV, priority 2022, published 2025)

Test system: Diabrotica speciosa
Test: Dry bean field trials, Diabrotica speciosa damage and yield (Example 4)
Assay type: in vivo
Conditions: 150 L water/ha, two applications 7 d apart; for % Damage, % UNCK: 28 DAB, Lambda-cyhalothrin 100 at 0.15 L/ha; for Yield: plot
Description: All applications were made with an EC formulation containing 650 g/L of pelargonic acid (e.g., 685 g/L of 95% purity pelargonic acid), an anionic emulsifier and a branched fatty acid ester solvent.
Diabrotica speciosa is a major pest in rice.
Dry Beans—Diabrotica speciosa

CC1(C)[C@H](C(=O)O[C@H](C#N)c2cccc(Oc3ccccc3)c2)[C@@H]1/C=C(\Cl)C(F)(F)F (racemic) [Lambda-cyhalothrin 100, Lambda-cyhalothrin, reference compound]
% Damage, % UNCK (Trial 1, dry bean): 80.55b % UNCK
Yield (Trial 1, dry bean): 2.55a Ton/ha
% Damage, % UNCK (Trial 2, dry bean): 81.41c % UNCK
Yield (Trial 2, dry bean): 2.29ab Ton/ha
